Data reported in ChEMBL document CHEMBL5029172, “Neopentyl Glycol as a Scaffold to Provide Radiohalogenated Theranostic Pairs of High In Vivo Stability” (J Med Chem, 2021).

Assay: Biodistribution in ICR mouse neck at 7.4 kBq, iv upto 24 hrs
Type: ADME, organism-based
Settings: in vivo; call rule not given here

| SMILES | Drug uptake |
| --- | --- |
| CCC(CC)(C[125I])Cn1ccnc1[N+](=O)[O-] | Active |
| O=[N+]([O-])c1nccn1CC(CO)(CO)C[211At] | Not Active |
| O=C(NCCn1ccnc1[N+](=O)[O-])c1cccc([211At])c1 | Active |
| O=[N+]([O-])c1nccn1CC(CO)(CO)C[125I] | Not Active |
| CCC(CO)(C[125I])Cn1ccnc1[N+](=O)[O-] (stereo unspecified) | Not Active |
| O=C(NCCn1ccnc1[N+](=O)[O-])c1cccc([125I])c1 | Not Active |

Assay: Biodistribution in ICR mouse stomach at 7.4 kBq, iv upto 24 hrs
Type: ADME, organism-based
Settings: in vivo

| SMILES | Drug uptake |
| --- | --- |
| CCC(CC)(C[125I])Cn1ccnc1[N+](=O)[O-] | Active |
| O=[N+]([O-])c1nccn1CC(CO)(CO)C[211At] | Not Active |
| O=C(NCCn1ccnc1[N+](=O)[O-])c1cccc([211At])c1 | Active |
| O=[N+]([O-])c1nccn1CC(CO)(CO)C[125I] | Not Active |
| CCC(CO)(C[125I])Cn1ccnc1[N+](=O)[O-] (stereo unspecified) | Not Active |
| O=C(NCCn1ccnc1[N+](=O)[O-])c1cccc([125I])c1 | Not Active |

Assay: Biodistribution in ICR mouse assessed as blood clearance by measuring elimination rate at 7.4 kBq, iv upto 24 hrs
Type: ADME, organism-based
Settings: in vivo

| SMILES | CL |
| --- | --- |
| CCC(CC)(C[125I])Cn1ccnc1[N+](=O)[O-] | Not Active |
| O=[N+]([O-])c1nccn1CC(CO)(CO)C[211At] | Active |
| O=C(NCCn1ccnc1[N+](=O)[O-])c1cccc([211At])c1 | Not Active |
| O=[N+]([O-])c1nccn1CC(CO)(CO)C[125I] | Active |
| CCC(CO)(C[125I])Cn1ccnc1[N+](=O)[O-] (stereo unspecified) | Active |
| O=C(NCCn1ccnc1[N+](=O)[O-])c1cccc([125I])c1 | Active |

Assay: Metabolic stability in human liver microsomes assessed as intact fractions at […] preincubated for 5 min measured by TLC followed by RP-HPLC
Type: ADME, Microsome
Settings: read-out: Activity

| SMILES | remaining at 5 min [%] |
| --- | --- |
| CCC(C[125I])(CO[C@@H]1O[C@H](C(=O)O)[C@@H](O)[C@H](O)[C@H]1O)Cn1ccnc1[N+](=O)[O-] (stereo partly specified) | > 99.8 |
| CCC(CC)(C[125I])Cn1ccnc1[N+](=O)[O-] | 1.5 |
| O=[N+]([O-])c1nccn1CC(CO)(CO)C[211At] | 96.9 |
| O=[N+]([O-])c1nccn1CC(CO)(CO)C[125I] | > 99.8 |
| O=C(O)[C@H]1O[C@@H](OCC(CO)(C[125I])Cn2ccnc2[N+](=O)[O-])[C@H](O)[C@@H](O)[C@@H]1O (stereo partly specified) | > 99.8 |
| CCC(CO)(C[125I])Cn1ccnc1[N+](=O)[O-] (stereo unspecified) | > 99.8 |

Assay: Metabolic stability in mouse liver microsomes assessed as intact fractions at […] preincubated for 5 min measured by TLC followed by RP-HPLC
Type: ADME, Microsome
Settings: read-out: Activity

| SMILES | remaining at 5 min [%] |
| --- | --- |
| CCC(C[125I])(CO[C@@H]1O[C@H](C(=O)O)[C@@H](O)[C@H](O)[C@H]1O)Cn1ccnc1[N+](=O)[O-] (stereo partly specified) | > 99.8 |
| CCC(CC)(C[125I])Cn1ccnc1[N+](=O)[O-] | 2.2 |
| O=[N+]([O-])c1nccn1CC(CO)(CO)C[211At] | 96.9 |
| O=[N+]([O-])c1nccn1CC(CO)(CO)C[125I] | > 99.8 |
| O=C(O)[C@H]1O[C@@H](OCC(CO)(C[125I])Cn2ccnc2[N+](=O)[O-])[C@H](O)[C@@H](O)[C@@H]1O (stereo partly specified) | > 99.8 |
| CCC(CO)(C[125I])Cn1ccnc1[N+](=O)[O-] (stereo unspecified) | 72 |

Assay: Drug metabolism in ICR mouse urine assessed as metabolite during retention time measured at 7.4 kBq, iv after 6 hrs by RP-HPLC followed by HILIC-HPLC analysis
Type: ADME, organism-based
Settings: not given

| SMILES | Drug excretion | Drug metabolism |
| --- | --- | --- |
| CCC(CC)(C[125I])Cn1ccnc1[N+](=O)[O-] | Active |  |
| O=[N+]([O-])c1nccn1CC(CO)(CO)C[211At] |  | Metabolite_Detected |
| O=[N+]([O-])c1nccn1CC(CO)(CO)C[125I] |  | Metabolite_Detected |
| CCC(CO)(C[125I])Cn1ccnc1[N+](=O)[O-] (stereo unspecified) | Active |  |
| O=C(NCCn1ccnc1[N+](=O)[O-])c1cccc([125I])c1 | Not Active |  |

Assay: Stability of compound in presence of GSH measured upto 24 hrs by TLC radiochromatogram
Type: physicochemical
Settings: not given

| SMILES | Stability |
| --- | --- |
| CCC(CC)(C[125I])Cn1ccnc1[N+](=O)[O-] | Stable |
| O=[N+]([O-])c1nccn1CC(CO)(CO)C[211At] | Stable |
| O=[N+]([O-])c1nccn1CC(CO)(CO)C[125I] | Stable |
| CCC(CO)(C[125I])Cn1ccnc1[N+](=O)[O-] (stereo unspecified) | Stable |

Assay: Metabolic stability in mouse liver microsomes assessed as intact fractions at 0.3 MBq preincubated for 5 min measured by TLC analysis
Type: ADME, Microsome
Settings: read-out: Stability

| SMILES | remaining at 5 min, 0.3 MBq [%] |
| --- | --- |
| O=[N+]([O-])c1nccn1CC(CO)(CO)C[211At] | 96.9 |

Assay: Metabolic stability in human liver microsomes assessed as intact fractions at 0.3 MBq preincubated for 5 min measured by TLC analysis
Type: ADME, Microsome
Settings: read-out: Stability

| SMILES | remaining at 5 min, 0.3 MBq [%] |
| --- | --- |
| O=[N+]([O-])c1nccn1CC(CO)(CO)C[211At] | 96.9 |

Assay: Metabolic stability in mouse liver microsomes assessed as retention time at […] measured after 5 mins by RP-HPLC
Type: ADME, Microsome
Settings: not given

| SMILES | Retention_time [min] |
| --- | --- |
| CCC(C[125I])(CO[C@@H]1O[C@H](C(=O)O)[C@@H](O)[C@H](O)[C@H]1O)Cn1ccnc1[N+](=O)[O-] (stereo partly specified) | < 0.2 |
| CCC(CC)(C[125I])Cn1ccnc1[N+](=O)[O-] | 52.6 |
| O=[N+]([O-])c1nccn1CC(CO)(CO)C[125I] | < 0.2 |
| O=C(O)[C@H]1O[C@@H](OCC(CO)(C[125I])Cn2ccnc2[N+](=O)[O-])[C@H](O)[C@@H](O)[C@@H]1O (stereo partly specified) | < 0.2 |
| CCC(CO)(C[125I])Cn1ccnc1[N+](=O)[O-] (stereo unspecified) | 23.5 |

Assay: Metabolic stability in human liver microsomes assessed as retention time at […] measured after 5 mins by RP-HPLC
Type: ADME, Microsome
Settings: not given

| SMILES | Retention_time [min] |
| --- | --- |
| CCC(C[125I])(CO[C@@H]1O[C@H](C(=O)O)[C@@H](O)[C@H](O)[C@H]1O)Cn1ccnc1[N+](=O)[O-] (stereo partly specified) | < 0.2 |
| CCC(CC)(C[125I])Cn1ccnc1[N+](=O)[O-] | 16.5 |
| O=[N+]([O-])c1nccn1CC(CO)(CO)C[125I] | < 0.2 |
| O=C(O)[C@H]1O[C@@H](OCC(CO)(C[125I])Cn2ccnc2[N+](=O)[O-])[C@H](O)[C@@H](O)[C@@H]1O (stereo partly specified) | < 0.2 |
| CCC(CO)(C[125I])Cn1ccnc1[N+](=O)[O-] (stereo unspecified) | < 0.2 |
